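Dose response: 5 concentrations. Exposure: 48 h. Format: 96-well plates. Endpoint: linear interpolation; highest concentration if not reached. GI50 marks 50% less growth. TGI denotes the concentration required for complete inhibition of growth.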
Assays:
Assay in all cases: NCI-60 cell line screen, 48 h
[1] = test system: 786-0 renal
[2] = test system: A498 renal
[3] = test system: A549 NSCLC
[4] = test system: ACHN renal
[5] = test system: BT-549 breast
[6] = test system: CAKI-1 renal
[7] = test system: CCRF-CEM leukemia
[8] = test system: COLO 205 colon
[9] = test system: DU-145 prostate
[10] = test system: EKVX NSCLC
[11] = test system: HCC-2998 colon
[12] = test system: HCT-116 colon
[13] = test system: HCT-15 colon
[14] = test system: HL-60(TB) leukemia
[15] = test system: HOP-62 NSCLC
[16] = test system: HOP-92 NSCLC
[17] = test system: HS 578T breast
[18] = test system: HT29 colon
[19] = test system: IGROV1 ovarian
[20] = test system: K-562 leukemia
[21] = test system: KM12 colon
[22] = test system: LOX IMVI melanoma
[23] = test system: M14 melanoma
[24] = test system: MALME-3M melanoma
[25] = test system: MCF7 breast
[26] = test system: MDA-MB-435
[27] = test system: MOLT-4 leukemia
[28] = test system: NCI-H226 lung
[29] = test system: NCI-H23 lung
[30] = test system: NCI-H460 lung
[31] = test system: NCI-H522 lung
[32] = test system: NCI/ADR-RES ovarian
[33] = test system: OVCAR-3 ovarian
[34] = test system: OVCAR-4 ovarian
[35] = test system: OVCAR-5 ovarian
[36] = test system: OVCAR-8 ovarian
[37] = test system: PC-3 prostate
[38] = test system: RPMI-8226 leukemia
[39] = test system: RXF 393 renal
[40] = test system: SF-268 CNS
[41] = test system: SF-295 CNS
[42] = test system: SF-539 CNS
[43] = test system: SK-MEL-2 melanoma
[44] = test system: SK-MEL-28 melanoma
[45] = test system: SK-MEL-5 melanoma
[46] = test system: SK-OV-3 ovarian
[47] = test system: SN12C renal
[48] = test system: SNB-19 CNS
[49] = test system: SNB-75 CNS
[50] = test system: SR leukemia
[51] = test system: SW-620 colon
[52] = test system: T-47D breast
[53] = test system: TK-10 renal
[54] = test system: U251 CNS
[55] = test system: UACC-257 melanoma
[56] = test system: UACC-62 melanoma
[57] = test system: UO-31 renal
[58] = test system: MDA-MB-231 breast

O=C(CSc1nnc(-c2ccc(Cl)cc2)n1-c1ccccc1)Nc1ccc(Cl)cc1
GI50 [1]: 1.92 µM
TGI [1]: 4.09 µM
GI50 [2]: 1.88 µM
TGI [2]: 5.15 µM
GI50 [3]: 3.67 µM
TGI [3]: > 100 µM
GI50 [4]: 1.76 µM
TGI [4]: 3.98 µM
GI50 [5]: 3.66 µM
TGI [5]: 38.8 µM
GI50 [6]: 2.95 µM
TGI [6]: 13 µM
GI50 [7]: > 100 µM
TGI [7]: > 100 µM
GI50 [8]: 15.7 µM
TGI [8]: > 100 µM
GI50 [9]: 7.41 µM
TGI [9]: > 100 µM
GI50 [10]: 20.9 µM
TGI [10]: > 100 µM
GI50 [11]: 43.9 µM
TGI [11]: > 100 µM
GI50 [12]: 1.98 µM
TGI [12]: 4.29 µM
GI50 [13]: 87.1 µM
TGI [13]: > 100 µM
GI50 [14]: > 100 µM
TGI [14]: > 100 µM
GI50 [15]: 3.34 µM
TGI [15]: 16 µM
GI50 [16]: 2.72 µM
TGI [16]: 9.6 µM
GI50 [17]: 3.52 µM
TGI [17]: > 100 µM
GI50 [18]: 7.79 µM
TGI [18]: > 100 µM
GI50 [19]: 5.24 µM
TGI [19]: > 100 µM
GI50 [20]: 13.4 µM
TGI [20]: > 100 µM
GI50 [21]: 47.1 µM
TGI [21]: > 100 µM
GI50 [22]: 2.98 µM
TGI [22]: 10.2 µM
GI50 [23]: 25.1 µM
TGI [23]: > 100 µM
GI50 [24]: 3.67 µM
TGI [24]: 22.3 µM
GI50 [25]: 5.76 µM
TGI [25]: > 100 µM
GI50 [26]: 21.5 µM
TGI [26]: > 100 µM
GI50 [27]: > 100 µM
TGI [27]: > 100 µM
GI50 [28]: 3.2 µM
TGI [28]: 20.8 µM
GI50 [29]: 5.09 µM
TGI [29]: 43.7 µM
GI50 [30]: 2.77 µM
TGI [30]: 8.09 µM
GI50 [31]: 3.11 µM
TGI [31]: 17.2 µM
GI50 [32]: 4.06 µM
TGI [32]: > 100 µM
GI50 [33]: 6.2 µM
TGI [33]: 57.8 µM
GI50 [34]: 3.38 µM
TGI [34]: > 100 µM
GI50 [35]: 4.89 µM
TGI [35]: > 100 µM
GI50 [36]: 3.79 µM
TGI [36]: 29.9 µM
GI50 [37]: 20.1 µM
TGI [37]: > 100 µM
GI50 [38]: 4.14 µM
TGI [38]: > 100 µM
GI50 [39]: 2.03 µM
TGI [39]: 4.98 µM
GI50 [40]: 4.85 µM
TGI [40]: > 100 µM
GI50 [41]: 5.56 µM
TGI [41]: 21.1 µM
GI50 [42]: 2.38 µM
TGI [42]: 5.18 µM
GI50 [43]: 13.6 µM
TGI [43]: 63.8 µM
GI50 [44]: 15.4 µM
TGI [44]: > 100 µM
GI50 [45]: 8.07 µM
TGI [45]: > 100 µM
GI50 [46]: 4.53 µM
TGI [46]: 17.3 µM
GI50 [47]: 3.19 µM
TGI [47]: > 100 µM
GI50 [48]: 7.08 µM
TGI [48]: > 100 µM
GI50 [49]: 1.57 µM
TGI [49]: 4.57 µM
GI50 [50]: 4.28 µM
TGI [50]: > 100 µM
GI50 [51]: 8.68 µM
TGI [51]: > 100 µM
GI50 [52]: 3.2 µM
TGI [52]: > 100 µM
GI50 [53]: 2.2 µM
TGI [53]: 5.76 µM
GI50 [54]: 3.2 µM
TGI [54]: 11.5 µM
GI50 [55]: 39.8 µM
TGI [55]: > 100 µM
GI50 [56]: 4.81 µM
TGI [56]: > 100 µM
GI50 [57]: 1.83 µM
TGI [57]: 5.2 µM

CCOC(=O)c1c(NC(=O)c2cccc(C(F)(F)F)c2)sc2c3c(ccc12)OCN(C)C3
GI50 [2]: 1.63 µM
TGI [2]: 3.07 µM
GI50 [3]: 2.07 µM
TGI [3]: 4.9 µM
GI50 [4]: 1.76 µM
TGI [4]: 3.27 µM
GI50 [6]: 1.57 µM
TGI [6]: 2.99 µM
GI50 [7]: 1.56 µM
TGI [7]: 4.62 µM
GI50 [8]: 2.21 µM
TGI [8]: 5.08 µM
GI50 [9]: 1.79 µM
TGI [9]: 3.23 µM
GI50 [10]: 1.64 µM
TGI [10]: 3.24 µM
GI50 [11]: 1.52 µM
TGI [11]: 2.98 µM
GI50 [12]: 1.95 µM
TGI [12]: 4.74 µM
GI50 [13]: 1.31 µM
TGI [13]: 2.69 µM
GI50 [14]: 1.54 µM
TGI [14]: 4.29 µM
GI50 [15]: 2.33 µM
TGI [15]: 6.08 µM
GI50 [16]: 1.4 µM
TGI [16]: 3.05 µM
GI50 [19]: 1.69 µM
TGI [19]: 3.5 µM
GI50 [20]: 0.394 µM
TGI [20]: 1.8 µM
GI50 [21]: 1.68 µM
TGI [21]: 3.19 µM
GI50 [22]: 1.68 µM
TGI [22]: 3.25 µM
GI50 [24]: 1.98 µM
TGI [24]: 3.74 µM
GI50 [25]: 1.67 µM
TGI [25]: 3.3 µM
GI50 [58]: 1.7 µM
TGI [58]: 3.33 µM
GI50 [26]: 1.69 µM
TGI [26]: 3.13 µM
GI50 [27]: 1.86 µM
TGI [27]: 4.54 µM
GI50 [28]: 1.78 µM
TGI [28]: 3.78 µM
GI50 [29]: 1.89 µM
TGI [29]: 3.84 µM
GI50 [30]: 1.64 µM
TGI [30]: 3.28 µM
GI50 [31]: 2.22 µM
TGI [31]: 5.55 µM
GI50 [33]: 1.7 µM
TGI [33]: 3.21 µM
GI50 [34]: 1.79 µM
TGI [34]: 3.61 µM
GI50 [35]: 1.67 µM
TGI [35]: 3.15 µM
GI50 [36]: 2.26 µM
TGI [36]: 5.24 µM
GI50 [38]: 1.54 µM
TGI [38]: 4.27 µM
GI50 [39]: 1.47 µM
TGI [39]: 3.02 µM
GI50 [40]: 1.89 µM
TGI [40]: 3.79 µM
GI50 [41]: 1.78 µM
TGI [41]: 3.35 µM
GI50 [42]: 1.66 µM
TGI [42]: 3.19 µM
GI50 [44]: 1.71 µM
TGI [44]: 3.14 µM
GI50 [45]: 1.77 µM
TGI [45]: 3.27 µM
GI50 [46]: 2.07 µM
TGI [46]: 4.31 µM
GI50 [47]: 1.8 µM
TGI [47]: 3.53 µM
GI50 [48]: 1.79 µM
TGI [48]: 3.64 µM
GI50 [49]: 1.53 µM
TGI [49]: 3.28 µM
GI50 [50]: 0.463 µM
TGI [50]: 4.58 µM
GI50 [51]: 0.873 µM
TGI [51]: 2.27 µM
GI50 [52]: 1.94 µM
TGI [52]: 4.57 µM
GI50 [53]: 1.91 µM
TGI [53]: 3.81 µM
GI50 [54]: 1.85 µM
TGI [54]: 3.93 µM
GI50 [56]: 1.68 µM
TGI [56]: 3.17 µM
GI50 [57]: 1.53 µM
TGI [57]: 2.94 µM

Reference: PubChem BioAssay (NCI)
